From US9371296B2, “Bicyclic 1,3,4-oxadiazole derivatives as sphingosine-1-phosphate receptors' modulators” (Allergan, Inc., priority 2014, dated 2016) come the findings set out here.

The target of this assay is T1, human S1P1 receptor (Homo sapiens, UniProt P21453).
T1 construct: expressed in transfected cells; membranes used
The assay can be described thus: GTP γ35S binding assay for S1P1 activity. The following applies: 5 microgram membrane protein, test compounds 0.08 to 5,000 nM, 30 min at 25° C. Format: biochemical. The method, then: Compounds were synthesized and tested for S1P1 activity using the GTP γ^35S binding assay. These compounds may be assessed for their ability to activate or block activation of the human S1P1 receptor in cells stably expressing the S1P1 receptor.
GTP γ^35S binding was measured in medium containing (mM) HEPES 25, pH 7.4, MgCl2 10, NaCl 100, dithiothreitol 0.5, digitonin 0.003%, 0.2 nM GTP γ^35S, and 5 microgram membrane protein in a volume of 150 microliters. Test compounds were included in the concentration range from 0.08 to 5,000 nM unless indicated otherwise. Membranes were incubated with 100 μM 5′-adenylylimmidodiphosphate for 30 min, and subsequently with 10 micromolar GDP for 10 min on ice. Drug solutions and membrane were mixed, and then reactions were initiated by adding GTP γ^35S and continued for 30 min at 25° C. Reaction mixtures were filtered over Whatman GF/B filters under vacuum, and washed three times with 3 mL of ice-cold buffer (HEPES 25, pH7.4, MgCl2 10 and NaCl 100). Filters were dried and mixed with scintillant, and counted for ^35S activity using a β-counter. Agonist-induced GTP γ^35S binding was obtained by subtracting that in the absence of agonist. Binding data were analyzed using a non-linear regression method. In case of antagonist assay, the reaction mixture contained 10 nM […] in the presence of test antagonist at concentrations ranging from 0.08 to 5000 nM.

T1 sequence (P21453 whole entry): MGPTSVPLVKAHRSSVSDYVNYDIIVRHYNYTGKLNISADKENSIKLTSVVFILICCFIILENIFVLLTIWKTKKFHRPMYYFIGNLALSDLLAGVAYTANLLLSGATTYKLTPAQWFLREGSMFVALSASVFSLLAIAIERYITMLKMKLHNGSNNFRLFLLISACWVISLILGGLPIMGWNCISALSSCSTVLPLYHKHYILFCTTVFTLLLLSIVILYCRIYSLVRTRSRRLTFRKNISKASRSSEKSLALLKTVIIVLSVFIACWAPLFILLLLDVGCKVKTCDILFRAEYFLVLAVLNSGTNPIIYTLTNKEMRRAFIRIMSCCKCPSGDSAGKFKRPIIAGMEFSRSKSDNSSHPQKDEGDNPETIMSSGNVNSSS

Broadly, the EC50 is the midpoint of the concentration-response curve. Read a high EC50 as a less potent agent. Take `CCCC(Cc1nnc(-c2ccc(CNCCCP(=O)(O)O)c3ncccc23)o1)c1ccccc1` (stereo not drawn) [Compound 11, {3-[({5-[5-(2-phenylpentyl)-1,3,4-oxadiazol-2-yl]quinolin-8-yl}methyl)amino]propyl}phosphonic acid]: the EC50 was found to be 0.26 nM.

Regarding `CCCCCC(Cc1nnc(-c2ccc(CNCCC(=O)O)c3ccccc23)o1)c1ccccc1` (stereo not drawn) [Compound 10, 3-[({4-[5-(2-phenylheptyl)-1,3,4-oxadiazol-2-yl]naphthalen-1-yl}methyl)amino]propanoic acid], the midpoint of the response, the EC50, lay at 320 nM.

`CCCC/C(=C\c1nnc(-c2ccc(CN3CC(C(=O)O)C3)c3ccccc23)o1)c1ccccc1` [Compound 14, 1-[(4-{5-[(1E)-2-phenylhex-1-en-1-yl]-1,3,4-oxadiazol-2-yl}naphthalen-1-yl)methyl]azetidine-3-carboxylic acid]: the EC50 is 156 nM. Compared with the last compound, the EC50 is about 2.1-fold lower.

For the compound `CCCC/C(=C\c1nnc(-c2ccc(CNCCC(=O)O)c3ncccc23)o1)c1ccccc1` [Compound 8, 3-{[(5-{5-[(1E)-2-phenylhex-1-en-1-yl]-1,3,4-oxadiazol-2-yl}quinolin-8-yl)methyl]amino}propanoic acid], the response was half-maximal at 33 nM (EC50).

`CCCCC(Cc1nnc(-c2ccc(CNCCC(=O)O)c3ncccc23)o1)c1ccccc1` (stereo not drawn) [Compound 19, 3-[({5-[5-(2-phenylhexyl)-1,3,4-oxadiazol-2-yl]quinolin-8-yl}methyl)amino]propanoic acid] had an EC50 of 257 nM. Against the preceding compound, the EC50 is about 7.8-fold higher.

`CCC/C(=C\c1nnc(-c2ccc(CN3CC(C(=O)O)C3)c3ccccc23)o1)c1ccccc1` [Compound 13, 1-[(4-{5-[(1E)-2-phenylpent-1-en-1-yl]-1,3,4-oxadiazol-2-yl}naphthalen-1-yl)methyl]azetidine-3-carboxylic acid] showed an EC50 of 607 nM.

Consider `CCCC/C(=C\c1nnc(-c2ccc(CNCCC(=O)O)c3ccccc23)o1)c1ccccc1` [Compound 4, 3-{[(4-{5-[(1E)-2-phenylhex-1-en-1-yl]-1,3,4-oxadiazol-2-yl}naphthalen-1-yl)methyl]amino}propanoic acid], for which the EC50 was 85 nM.

For the compound `CCCC/C(=C\c1nnc(-c2ccc(CN3CC(C(=O)O)C3)c3ncccc23)o1)c1ccccc1` [Compound 16, 1-[(5-{5-[(1E)-2-phenylhex-1-en-1-yl]-1,3,4-oxadiazol-2-yl}quinolin-8-yl)methyl]azetidine-3-carboxylic acid], the EC50 came to 29 nM.

`CCCC/C(=C\c1nnc(-c2ccc(CNCCCP(=O)(O)O)c3ccccc23)o1)c1ccccc1` [Compound 3, (3-{[(4-{5-[(1E)-2-phenylhex-1-en-1-yl]-1,3,4-oxadiazol-2-yl}naphthalen-1-yl)methyl]amino}propyl) phosphonic acid] returned an EC50 of 2.52 nM.

`CCCCC(Cc1nnc(-c2ccc(CN3CC(C(=O)O)C3)c3ncccc23)o1)c1ccccc1` (stereo not drawn) [Compound 23, 1-({5-[5-(2-phenylhexyl)-1,3,4-oxadiazol-2-yl]quinolin-8-yl}methyl)azetidine-3-carboxylic acid] showed an EC50 of 376 nM. Against the preceding compound, the EC50 is about 150-fold higher.

Compound `CCCCCC(Cc1nnc(-c2ccc(CNCCC(=O)O)c3ncccc23)o1)c1ccccc1` (stereo not drawn) [Compound 20, 3-[({5-[5-(2-phenylheptyl)-1,3,4-oxadiazol-2-yl]quinolin-8-yl}methyl)amino]propanoic acid] showed an EC50 of 417 nM.

The compound `CCCC/C(=C\c1nnc(-c2ccc(CNCCCP(=O)(O)O)c3ncccc23)o1)c1ccccc1` [Compound 7, (3-{[(5-{5-[(1E)-2-phenylhex-1-en-1-yl]-1,3,4-oxadiazol-2-yl}quinolin-8-yl)methyl]amino}propyl) phosphonic acid] showed an EC50 of 0.5 nM.

`CCC/C(=C\c1nnc(-c2ccc(CNCCC(=O)O)c3ccccc23)o1)c1ccccc1` [Compound 2, 3-{[(4-{5-[(1E)-2-phenylpent-1-en-1-yl]-1,3,4-oxadiazol-2-yl}naphthalen-1-yl)methyl]amino}propanoic acid] yielded an EC50 of 571 nM.

Compound `CCC/C(=C\c1nnc(-c2ccc(CNCCCP(=O)(O)O)c3ncccc23)o1)c1ccccc1` [Compound 5, (3-{[(5-{5-[(1E)-2-phenylpent-1-en-1-yl]-1,3,4-oxadiazol-2-yl}quinolin-8-yl)methyl]amino}propyl) phosphonic acid] displayed an EC50 of 0.61 nM.

With `CCC/C(=C\c1nnc(-c2ccc(CNCCCP(=O)(O)O)c3ccccc23)o1)c1ccccc1` [Compound 1, (3-{[(4-{5-[(1E)-2-phenylpent-1-en-1-yl]-1,3,4-oxadiazol-2-yl}naphthalen-1-yl)methyl]amino}propyl)phosphonic acid], a half-maximal response (EC50) required 27 nM.

Turning to `CCCC(Cc1nnc(-c2ccc(CNCCC(=O)O)c3ncccc23)o1)c1ccccc1` (stereo not drawn) [Compound 12, 3-[({5-[5-(2-phenylpentyl)-1,3,4-oxadiazol-2-yl]quinolin-8-yl}methyl)amino]propanoic acid], the EC50 is 340 nM.

As to `CCCCCC(Cc1nnc(-c2ccc(CN3CC(C(=O)O)C3)c3ncccc23)o1)c1ccccc1` (stereo not drawn) [Compound 24, 1-({5-[5-(2-phenylheptyl)-1,3,4-oxadiazol-2-yl]quinolin-8-yl}methyl)azetidine-3-carboxylic acid], a half-maximal effect (EC50) was put at 1090 nM. Compared with the last compound, the EC50 is about 3.2-fold higher.

`CCCCCC(Cc1nnc(-c2ccc(CNCCCP(=O)(O)O)c3ncccc23)o1)c1ccccc1` (stereo not drawn) [Compound 22, {3-[({5-[5-(2-phenylheptyl)-1,3,4-oxadiazol-2-yl]quinolin-8-yl}methyl)amino]propyl}phosphonic acid] came in with an EC50 of 2.87 nM. Compared with the last compound, the EC50 is about 380-fold lower.

As to `CCCC(Cc1nnc(-c2ccc(CN3CC(C(=O)O)C3)c3ncccc23)o1)c1ccccc1` (stereo not drawn) [Compound 18, 1-({5-[5-(2-phenylpentyl)-1,3,4-oxadiazol-2-yl]quinolin-8-yl}methyl)azetidine-3-carboxylic acid], the EC50 came to 461 nM.

For the compound `CCC/C(=C\c1nnc(-c2ccc(CNCCC(=O)O)c3ncccc23)o1)c1ccccc1` [Compound 6, 3-{[(5-{5-[(1E)-2-phenylpent-1-en-1-yl]-1,3,4-oxadiazol-2-yl}quinolin-8-yl)methyl]amino}propanoic acid], the response was half-maximal at 150 nM (EC50).

In turn, “(E)-1-((5-(5-(2-phenylpent-1-en-1-yI)-1,3,4-oxadiazol-2-yl)quinolin-8-yl)methyl)azetidine-3-carboxylic acid [Compound 15]” showed an EC50 of 163 nM.

With `CCCCC(Cc1nnc(-c2ccc(CNCCCP(=O)(O)O)c3ncccc23)o1)c1ccccc1` (stereo not drawn) [Compound 21, {3-[({5-[5-(2-phenylhexyl)-1,3,4-oxadiazol-2-yl]quinolin-8-yl}methyl)amino]propyl}phosphonic acid], a half-maximal effect (EC50) was put at 1.05 nM.

Compound `CCCCCC(Cc1nnc(-c2ccc(CNCCCP(=O)(O)O)c3ccccc23)o1)c1ccccc1` (stereo not drawn) [Compound 9, {3-[({4-[5-(2-phenylheptyl)-1,3,4-oxadiazol-2-yl]naphthalen-1-yl}methyl)amino]propyl}phosphonic acid] registered an EC50 of 14 nM.

`CCCCCC(Cc1nnc(-c2ccc(CN3CC(C(=O)O)C3)c3ccccc23)o1)c1ccccc1` (stereo not drawn) [Compound 17, 1-({4-[5-(2-phenylheptyl)-1,3,4-oxadiazol-2-yl]naphthalen-1-yl}methyl)azetidine-3-carboxylic acid] showed an EC50 of 942 nM.
